Test results: PubChem BioAssay (NCI)
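Growth conditions: 96-well plates. Treatment: test compound, 48 hours, 5 concentrations. Analysis: linear interpolation between bracketing concentrations; unreached endpoints set to highest concentration. TGI denotes the concentration required for complete inhibition of growth.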

Key:
Test in all cases: inhibition of tumour cell growth, NCI panel, 48 h
[1] = system: 786-0 renal
[2] = system: BT-549 breast
[3] = system: HCT-116 colon
[4] = system: HT29 colon
[5] = system: MDA-N
[6] = system: NCI-H23 lung
[7] = system: NCI-H460 lung
[8] = system: NCI-H522 lung
[9] = system: OVCAR-3 ovarian
[10] = system: OVCAR-4 ovarian
[11] = system: RPMI-8226 leukemia
[12] = system: SF-295 CNS
[13] = system: SK-MEL-2 melanoma
[14] = system: SK-MEL-5 melanoma
[15] = system: SN12C renal
[16] = system: U251 CNS
[17] = system: UACC-257 melanoma
[18] = system: A498 renal
[19] = system: HL-60(TB) leukemia
[20] = system: HOP-92 NSCLC

CSc1nc(=O)cnn1C
TGI [1]: > 100 µM | TGI [2]: > 100 µM | TGI [3]: > 100 µM | TGI [4]: > 100 µM | TGI [5]: > 100 µM | TGI [6]: > 100 µM | TGI [7]: > 100 µM | TGI [8]: > 100 µM | TGI [9]: > 100 µM | TGI [10]: > 100 µM | TGI [11]: > 100 µM | TGI [12]: > 100 µM | TGI [13]: > 100 µM | TGI [14]: > 100 µM | TGI [15]: > 100 µM | TGI [16]: > 100 µM | TGI [17]: > 100 µM

COC(=O)c1ccc2c(c1)CC1(C2)Cc2ccccc2C1=O (stereo unspecified)
TGI [1]: > 100 µM | TGI [18]: > 100 µM | TGI [3]: 69.4 µM | TGI [19]: 56.9 µM | TGI [20]: 82.9 µM | TGI [4]: 36 µM | TGI [5]: 59.8 µM | TGI [6]: > 100 µM | TGI [7]: > 100 µM | TGI [8]: > 100 µM | TGI [9]: > 100 µM | TGI [10]: > 100 µM | TGI [11]: 38 µM | TGI [12]: > 100 µM | TGI [13]: 69.8 µM | TGI [14]: 32.6 µM | TGI [15]: > 100 µM | TGI [16]: > 100 µM | TGI [17]: 35.2 µM

O=[N+]1[C@H](c2ccccc2)[C@H](c2ccccc2)N1[O-]
TGI [1]: 26.8 µM | TGI [18]: 67.3 µM | TGI [3]: 30.6 µM | TGI [19]: 5.48 µM | TGI [20]: 30.2 µM | TGI [4]: 33.1 µM | TGI [5]: 30.7 µM | TGI [6]: 32 µM | TGI [7]: 43.2 µM | TGI [8]: 24.2 µM | TGI [9]: 30.1 µM | TGI [10]: 59.2 µM | TGI [11]: 25.4 µM | TGI [12]: 38.6 µM | TGI [13]: 32.8 µM | TGI [14]: 30.9 µM | TGI [15]: 32.4 µM | TGI [16]: 33.5 µM | TGI [17]: 26.3 µM

O=C(Nc1ccccc1)OCCN=C1c2ccccc2CCc2ccccc21
TGI [1]: > 100 µM | TGI [2]: 42.1 µM | TGI [3]: 30 µM | TGI [19]: 42.2 µM | TGI [4]: 37 µM | TGI [5]: 37.2 µM | TGI [6]: > 100 µM | TGI [7]: 44.4 µM | TGI [9]: 44.3 µM | TGI [10]: > 100 µM | TGI [11]: 36.1 µM | TGI [12]: 34.1 µM | TGI [13]: 30.3 µM | TGI [14]: 27.3 µM | TGI [15]: 40.2 µM | TGI [16]: 32.1 µM | TGI [17]: 54.2 µM

CCCc1nc2c(n1CC)C(=O)c1ccccc1C2=O
TGI [1]: > 100 µM | TGI [2]: > 100 µM | TGI [3]: > 100 µM | TGI [19]: > 100 µM | TGI [4]: 53.3 µM | TGI [5]: 49.4 µM | TGI [6]: > 100 µM | TGI [7]: > 100 µM | TGI [8]: > 100 µM | TGI [9]: > 100 µM | TGI [10]: > 100 µM | TGI [11]: > 100 µM | TGI [12]: > 100 µM | TGI [14]: 88.7 µM | TGI [15]: > 100 µM | TGI [16]: > 100 µM | TGI [17]: 45.6 µM

O=[N+]([O-])c1ccc(-c2nn3c(C45CC6CC(CC(C6)C4)C5)nnc3s2)c(Cl)c1
TGI [1]: > 100 µM | TGI [18]: > 100 µM | TGI [3]: > 100 µM | TGI [19]: > 100 µM | TGI [20]: > 100 µM | TGI [4]: > 100 µM | TGI [5]: > 100 µM | TGI [6]: > 100 µM | TGI [7]: > 100 µM | TGI [8]: > 100 µM | TGI [9]: > 100 µM | TGI [10]: > 100 µM | TGI [11]: > 100 µM | TGI [12]: > 100 µM | TGI [13]: > 100 µM | TGI [14]: > 100 µM | TGI [15]: > 100 µM | TGI [16]: > 100 µM

COC(=O)C(=O)C(C(=O)C(=O)Nc1ccc(C)cc1C)c1nc2ccc(Cl)cc2[nH]c1=O (stereo unspecified)
TGI [1]: > 100 µM | TGI [2]: > 100 µM | TGI [3]: > 100 µM | TGI [19]: > 100 µM | TGI [20]: > 100 µM | TGI [4]: > 100 µM | TGI [5]: > 100 µM | TGI [6]: > 100 µM | TGI [7]: > 100 µM | TGI [8]: > 100 µM | TGI [9]: > 100 µM | TGI [10]: > 100 µM | TGI [12]: > 100 µM | TGI [13]: > 100 µM | TGI [14]: > 100 µM | TGI [15]: > 100 µM | TGI [16]: > 100 µM | TGI [17]: > 100 µM

O=C1Oc2ccccc2C(=O)/C1=C/N1C(=O)CNC1=S
TGI [1]: > 100 µM | TGI [2]: > 100 µM | TGI [3]: > 100 µM | TGI [19]: > 100 µM | TGI [4]: > 100 µM | TGI [5]: > 100 µM | TGI [6]: > 100 µM | TGI [7]: > 100 µM | TGI [8]: > 100 µM | TGI [9]: > 100 µM | TGI [10]: > 100 µM | TGI [11]: > 100 µM | TGI [12]: > 100 µM | TGI [13]: > 100 µM | TGI [14]: > 100 µM | TGI [15]: > 100 µM | TGI [16]: > 100 µM | TGI [17]: > 100 µM

CC1=CCC(C(C)(C)NC(=O)c2ccccc2)C/C1=N/O (stereo unspecified)
TGI [1]: > 100 µM | TGI [2]: > 100 µM | TGI [3]: > 100 µM | TGI [19]: > 100 µM | TGI [20]: > 100 µM | TGI [4]: > 100 µM | TGI [5]: > 100 µM | TGI [6]: > 100 µM | TGI [7]: > 100 µM | TGI [8]: > 100 µM | TGI [9]: > 100 µM | TGI [10]: > 100 µM | TGI [12]: > 100 µM | TGI [14]: > 100 µM | TGI [15]: > 100 µM | TGI [16]: > 100 µM | TGI [17]: > 100 µM

O=[N+]([O-])c1cccc2nccc(NCCN3CCOCC3)c12
TGI [1]: > 57.5 µM | TGI [18]: 29.3 µM | TGI [3]: 30.5 µM | TGI [19]: > 34.6 µM | TGI [20]: > 100 µM | TGI [4]: 44.4 µM | TGI [5]: 61.4 µM | TGI [6]: > 65.1 µM | TGI [7]: 32.5 µM | TGI [8]: 22 µM | TGI [9]: 25.2 µM | TGI [10]: 25.6 µM | TGI [11]: > 63.5 µM | TGI [12]: 25.6 µM | TGI [13]: 42.6 µM | TGI [14]: 22.3 µM | TGI [15]: > 48 µM | TGI [16]: > 53.9 µM | TGI [17]: 29 µM

C1CSCC2(COC2)CSCCSCC2(COC2)CS1
TGI [1]: > 100 µM | TGI [2]: > 100 µM | TGI [3]: > 100 µM | TGI [19]: > 100 µM | TGI [20]: > 100 µM | TGI [4]: > 100 µM | TGI [5]: > 100 µM | TGI [6]: > 100 µM | TGI [7]: > 100 µM | TGI [8]: > 100 µM | TGI [9]: > 100 µM | TGI [10]: > 100 µM | TGI [12]: > 100 µM | TGI [14]: > 100 µM | TGI [15]: > 100 µM | TGI [16]: > 100 µM | TGI [17]: > 100 µM
